From patent publication US4026896A, “Aromatic amidocarboxylic acids and pharmaceutical compositions thereof” (Kissei Yakuhin Kogyo Kabushiki Kaisha (Kissei …, priority 1974, dated 1977)

Columns and labels:
[1] = system: homologous passive cutaneous anaphylaxis (PCA); assay: Homologous passive cutaneous anaphylaxis (PCA) in rats, test compounds given orally; type: in vivo, Wistar male rats; conditions: rat, 200 mg/kg p.o., 2 hours prior to injection of antigen and Evans blue; for inhibition in vivo at 200 mg/kg: po, read-out: INHIBITION (%) of PCA (amount of dye leaked vs control group)
Description: "Homologous passive cutaneous anaphylaxis (PCA) in rats."
Wistar male rats weighing from 120 to 150 g were used in the present experiment. Reaginic antibody was obtained from rats immunized with 2,4-dinitrophenyl-coupled ascaris extract (DNP-As) mixed with Bordetella pertussis. Normal rats were sensitized passively with an intradermal injection of the diluted antiserum. After 48 hours of the sensitization, the mixture of antigen (DNP-As) and Evans blue was injected intravenously. The animals were sacrificed by a blow on the head 30 minutes after challenging with antigen. The area blued as a result of PCA was excised and the amount of dye leaked was measured photometrically after the extraction of same with acetone containing sodium carbonate.
The test compounds were suspended in 0.5% aqueous solution of sodium carboxymethylcellulose (CMC) and administered 200 mg/kg p.o. 2 hours prior to the injection of a mixture of antigen and Evans blue. […] The efficacy of the test compounds to inhibit the PCA was compared with the value (%) calculated using the following formula: [formula] A: Amount of dye leaked in the control group B: Amount of dye leaked in the group treated with test compound

[2] = system: experimental anaphylaxis / antiallergic effect; conditions: oral, mammalia; known reference compounds; cited from earlier work
[3] = system: release of chemical mediators from cells; conditions: caused by an antigen-antibody reaction; cited from earlier work

Work on `O=C(C=Cc1ccccc1)Nc1ccccc1C(=O)O` [N-cinnamoyl-anthranilic acid, reference compound] yielded an inhibition in vivo at 200 mg/kg [1] of 18.1%.
With `O=C(O)Cc1ccccc1NC(=O)C=Cc1ccc(Cl)cc1` [2-(4'-chlorocinnamoylamino)phenylacetic acid] the inhibition in vivo at 200 mg/kg [1] was 53.3%.
In the case of `COc1ccc(C=CC(=O)Nc2ccccc2CCC(=O)O)cc1OC` [β-[2-(3',4'-dimethoxycinnamoylamino)]phenylpropionic], the inhibition in vivo at 200 mg/kg [1] is reported as 27%.
In the case of `COc1ccc(C(C)=CC(=O)Nc2ccccc2CC(=O)O)cc1OC` [2-(3',4'-dimethoxy-β-methylcinnamoylamino)phenylacetic], the inhibition in vivo at 200 mg/kg [1] is reported as 37.3%.
In the case of `COc1ccc(C=CC(=O)Nc2ccccc2CC(=O)O)cc1OC` [2-(3',4'-dimethoxycinnamoylamino)phenylacetic acid], the inhibition in vivo at 200 mg/kg [1] is reported as 63.9%.
In the case of `O=C(C=Cc1ccccc1)Nc1cccc(C(=O)O)c1` [3-(cinnamoylamino)benzoic acid, reference compound], the inhibition in vivo at 200 mg/kg [1] is reported as 10.8%.
`COc1ccc(CCC(=O)Nc2ccccc2OCC(=O)O)cc1OC` [2-(3',4'-dimethoxyhydrocinnamoylamino)phenoxyacetic acid] showed an inhibition in vivo at 200 mg/kg [1] of 25.9%.
Work on `COc1ccc(C=CC(=O)Nc2cccc(CCC(=O)O)c2)cc1OC` [β-[3-(3',4'-dimethoxycinnamoylamino)]phenylpropionic] yielded an inhibition in vivo at 200 mg/kg [1] of 47.2%.
In the case of `Cc1ccc(C=CC(=O)Nc2ccc(OCC(=O)O)cc2)cc1` [β-[4-(4'-methylcinnamoylamino)]phenoxyacetic acid], the “INHIBITION (%) of PCA (amount of dye leaked vs control group)” value [1] is reported as 75.9%.
In the case of `O=C(C=Cc1ccccc1)Nc1ccc(C(=O)O)cc1` [4-(cinnamoylamino)benzoic acid, reference compound], the inhibition in vivo at 200 mg/kg [1] is reported as 7.5%.
`OCC(O)COc1ccc(Cl)cc1` (stereo not shown) [chlorphenesin, reference compound] showed an inhibition in vivo at 200 mg/kg [1] of 39.7%.
Compound `COc1ccc(C=CC(=O)Nc2ccccc2OCC(=O)O)cc1OC` [2-(3',4'-dimethoxycinnamoylamino)phenoxyacetic acid] has an inhibition in vivo at 200 mg/kg [1] of 42.6%.
Work on `O=C(O)Cc1ccc(NC(=O)C=Cc2ccc(O)cc2)cc1` [4-(4'-hydroxycinnamoylamino)phenylacetic acid] yielded an inhibition in vivo at 200 mg/kg [1] of 34.3%.
For `COc1ccc(C=CC(=O)Nc2ccc(CC(=O)O)cc2)cc1` [4-(4'-methoxy-β-cinnamoylamino)phenylacetic acid], the “INHIBITION (%) of PCA (amount of dye leaked vs control group)” value [1] was 85.3%.
For `O=C(O)Cc1cccc(NC(=O)C=Cc2ccccc2)c1` [3-(cinnamoylamino)phenylacetic acid], the inhibition in vivo at 200 mg/kg [1] was 39.8%.
With `CCCOc1ccc(C=CC(=O)Nc2ccccc2OCC(=O)O)cc1OC` [2-(3'-methoxy,4'-propoxycinnamoylamino)phenoxyacetic acid] the inhibition in vivo at 200 mg/kg [1] was 32.1%.
In the case of `O=C(O)c1cc(=O)c2c(OCC(O)COc3cccc4oc(C(=O)O)cc(=O)c34)cccc2o1` [disodium chromoglycate], the “antiallergic effect when administered orally” value [2] is listed as “not at all expected when this compound is administered orally” and the “inhibiting release of chemical mediators from cells” value [3] is listed as “effective for inhibiting release of chemical mediators from cells”.
For “cinnamoylaminobenzoic acid [unsubstituted cinnamoylaminobenzoic acid]”, the “antiallergic effect when administered orally” value [2] is listed as “only a slightly weak antiallergic effect”.
